The nature of data set [1]: Release profile of memantine and atorvastatin combination (cumulative fraction released). Type of data set: physicochemical. As to conditions: released from formulation matrix, USP II Paddle, water. The text has this:
The cumulative fraction is the amount of drug substance released from the formulation matrix to the serum or gut environment (e.g., U.S. Pat. No. 4,839,177) or as measured with a USP II Paddle system using water as the dissolution medium.

For data set [2] the following is noted: five doses at about 0.25 to about 1 mg/kg intravenous, 14 day interval; cited from earlier work.

For the compound `CC(C)c1c(C(=O)Nc2ccccc2)c(-c2ccccc2)c(-c2ccc(F)cc2)n1CC[C@@H](O)C[C@@H](O)CC(=O)O` [ATORVASTATIN, atorvastatin], the cum. fraction in data set [1] (Time 1) was 0.15; in data set [1] (Time 2) it was 0.30; in data set [1] (Time 4), 0.45; in data set [1] (Time 8), 0.60; in data set [1] (Time 12), 0.75; in data set [1] (Time 16), 0.90. Besides, the cum. fraction in data set [1] (Time 20) came to 0.98; in data set [1] (Time 24), 0.99.
As for “daclizumab: multiple sclerosis agent daclizumab (ZENAPAX), given intravenously”, in data set [2], the Peak serum concentrations is 21 to 32 µg/mL.

(Values after patent US20080279819A1, “Combinations Therapy for Treatment of Demyelinating Conditions” (Adamas Pharmaceuticals, Inc., priority 2005, published 2008).)
